Reference: patent EP4549575A1 (priority 2023, dated 2025)
Square brackets hold non-standard residues; d marks the D form. Peptide text beside a SMILES is read from it. * marks the point of attachment. hCys = N[C@@H](CCS)C(=O)O; βAla = NCCC(=O)O; CF3 = FC(F)(F)*

Tests used:
P. infestans = assay type: cell-based; conditions: for PPI (%) mycelium: Ala-scan of Ac-LP20 and CP20-Met-Ala; for PPI (%) mycelium / PPI (%) micelio: P. infestans mycelium in vitro; for PPI (%) micelio: Ala-scan of Ac-LP32; for PPI / PPI (%) ± Std. Dev.: 200 µM, P. infestans mycelium; for PPI: solid medium, linear vs cyclic peptides (Figure 8); for PPI (%) ± Std. Dev.: peptidomimetics
pronase = assay: Stability towards proteolysis (pronase, LC-MS); assay type: in vitro ADME, Streptomyces griseus; conditions: peptide 200 µM, protease 5 µg/mL, 37°C, pH 7.5; for stability against proteolysis: 0-2 h
Experimental: The evaluation of the stability of CP20 and Ac-LP20 towards proteolysis was tested at a peptide concentration of 200 µM using pronase (commercially available mixture of proteases isolated from the extracellular fluid of Streptomyces griseus, 2.5 µg/mg). Another peptide was added to this analysis, namely LP20 (without N-terminal acetylation), as it is easier to synthesize and to also assess the influence of N-terminal acetylation on the stability of LP20. Each peptide was tested in the presence of the protease (5 µg/mL) at 37°C in a buffer solution (50 mM Tris, 10 mM CaCl2, 150 mM NaCl, 0.05 % (w/v) Brij 35, pH 7.5) and its stability monitored by liquid chromatography coupled to mass spectrometry (LC-MS) at different time intervals (t=0 min, 10 min, 30 min, 1 h, 2 h). To stop enzyme activity, a small amount of the solution (60 µL) was transferred to an HPLC vial containing 6 µL of a 10% TFA solution at these different time points.

CSCC[C@H](NC(=O)[C@H](Cc1c[nH]c2ccccc12)NC(=O)[C@H](C)NC(=O)CCNC(C)=O)C(=O)N[C@@H](CC(C)C)C(=O)N[C@H](C(=O)N[C@@H](Cc1ccc(O)cc1)C(=O)N[C@@H](CCCNC(=N)N)C(=O)N[C@@H](CCCNC(=N)N)C(N)=O)C(C)C [Ac-LP20-Ala2, Ac-βA-AWMLVYRR-CONH2] (Ac-[βAla]AWMLVYRR-NH2)
PPI (%) mycelium (P. infestans): 38.75 ± 7.72%

CSCC[C@H](NC(=O)[C@H](C)NC(=O)[C@H](CCCNC(=N)N)NC(=O)CCNC(C)=O)C(=O)N[C@@H](CC(C)C)C(=O)N[C@H](C(=O)N[C@@H](Cc1ccc(O)cc1)C(=O)N[C@@H](CCCNC(=N)N)C(=O)N[C@@H](CCCNC(=N)N)C(N)=O)C(C)C [Ac-LP20-Ala3, Ac-βA-RAMLVYRR-CONH2] (Ac-[βAla]RAMLVYRR-NH2)
PPI (%) mycelium (P. infestans): 100 ± 0%

CSCC[C@H](NC(=O)[C@H](Cc1c[nH]c2ccccc12)NC(=O)[C@H](CCCNC(=N)N)NC(=O)CCNC(C)=O)C(=O)N[C@@H](C)C(=O)N[C@H](C(=O)N[C@@H](Cc1ccc(O)cc1)C(=O)N[C@@H](CCCNC(=N)N)C(=O)N[C@@H](CCCNC(=N)N)C(N)=O)C(C)C [Ac-LP20-Ala5, Ac-βA-RWMAVYRR-CONH2] (Ac-[βAla]RWMAVYRR-NH2)
PPI (%) mycelium (P. infestans): 70.73 ± 0%

CSCC[C@H](NC(=O)[C@H](Cc1c[nH]c2ccccc12)NC(=O)[C@H](CCCNC(=N)N)NC(=O)CCNC(C)=O)C(=O)N[C@@H](CC(C)C)C(=O)N[C@@H](C)C(=O)N[C@@H](Cc1ccc(O)cc1)C(=O)N[C@@H](CCCNC(=N)N)C(=O)N[C@@H](CCCNC(=N)N)C(N)=O [Ac-LP20-Ala6, Ac-βA-RWMLAYRR-CONH2] (Ac-[βAla]RWMLAYRR-NH2)
PPI (%) mycelium (P. infestans): 62.2 ± 7.54%

CSCC[C@H](NC(=O)[C@H](Cc1c[nH]c2ccccc12)NC(=O)[C@H](CCCNC(=N)N)NC(=O)CCNC(C)=O)C(=O)N[C@@H](CC(C)C)C(=O)N[C@H](C(=O)N[C@@H](C)C(=O)N[C@@H](CCCNC(=N)N)C(=O)N[C@@H](CCCNC(=N)N)C(N)=O)C(C)C [Ac-LP20-Ala7, Ac-βA-RWMLVARR-CONH2] (Ac-[βAla]RWMLVARR-NH2)
PPI (%) mycelium (P. infestans): 17.48 ± 12.34%

CSCC[C@H](NC(=O)[C@H](Cc1c[nH]c2ccccc12)NC(=O)[C@H](CCCNC(=N)N)NC(=O)CCNC(C)=O)C(=O)N[C@@H](CC(C)C)C(=O)N[C@H](C(=O)N[C@@H](Cc1ccc(O)cc1)C(=O)N[C@@H](C)C(=O)N[C@@H](CCCNC(=N)N)C(N)=O)C(C)C [Ac-LP20-Ala8, Ac-βA-RWMLVYAR-CONH2] (Ac-[βAla]RWMLVYAR-NH2)
PPI (%) mycelium (P. infestans): 10.57 ± 9.49%

CSCC[C@H](NC(=O)[C@H](Cc1c[nH]c2ccccc12)NC(=O)[C@H](CCCNC(=N)N)NC(=O)CCNC(C)=O)C(=O)N[C@@H](CC(C)C)C(=O)N[C@H](C(=O)N[C@@H](Cc1ccc(O)cc1)C(=O)N[C@@H](CCCNC(=N)N)C(=O)N[C@@H](C)C(N)=O)C(C)C [Ac-LP20-Ala9, Ac-βA-RWMLVYRA-CONH2] (Ac-[βAla]RWMLVYRA-NH2)
PPI (%) mycelium (P. infestans): 10.57 ± 9.49%

CC(=O)NCCC(=O)N[C@@H](C)C(=O)N[C@@H](CCCNC(=N)N)C(=O)N[C@@H](CC(C)C)C(=O)N[C@@H](CCCNC(=N)N)C(=O)N[C@@H](Cc1c[nH]c2ccccc12)C(=O)N[C@@H](CC(C)C)C(=O)N[C@@H](CCCNC(=N)N)C(=O)N[C@H](C(N)=O)C(C)C [Ac-LP32-Ala2, Ac-βA-ARLRWLRV-CONH2] (Ac-[βAla]ARLRWLRV-NH2)
PPI (%) micelio (P. infestans): 74.81 ± 3.63%

CC(=O)NCCC(=O)NCC(=O)N[C@@H](C)C(=O)N[C@@H](CC(C)C)C(=O)N[C@@H](CCCNC(=N)N)C(=O)N[C@@H](Cc1c[nH]c2ccccc12)C(=O)N[C@@H](CC(C)C)C(=O)N[C@@H](CCCNC(=N)N)C(=O)N[C@H](C(N)=O)C(C)C [Ac-LP32-Ala3, Ac-βA-GALRWLRV-CONH2] (Ac-[βAla]GALRWLRV-NH2)
PPI (%) micelio (P. infestans): 58.78 ± 3.94%

CC(=O)NCCC(=O)NCC(=O)N[C@@H](CCCNC(=N)N)C(=O)N[C@@H](C)C(=O)N[C@@H](CCCNC(=N)N)C(=O)N[C@@H](Cc1c[nH]c2ccccc12)C(=O)N[C@@H](CC(C)C)C(=O)N[C@@H](CCCNC(=N)N)C(=O)N[C@H](C(N)=O)C(C)C [Ac-LP32-Ala4, Ac-βA-GRARWLRV-CONH2] (Ac-[βAla]GRARWLRV-NH2)
PPI (%) micelio (P. infestans): 56.49 ± 10.10%

CC(=O)NCCC(=O)NCC(=O)N[C@@H](CCCNC(=N)N)C(=O)N[C@@H](CC(C)C)C(=O)N[C@@H](C)C(=O)N[C@@H](Cc1c[nH]c2ccccc12)C(=O)N[C@@H](CC(C)C)C(=O)N[C@@H](CCCNC(=N)N)C(=O)N[C@H](C(N)=O)C(C)C [Ac-LP32-Ala5, Ac-βA-GRLAWLRV-CONH2] (Ac-[βAla]GRLAWLRV-NH2)
PPI (%) micelio (P. infestans): 40.46 ± 1.76%

CC(=O)NCCC(=O)NCC(=O)N[C@@H](CCCNC(=N)N)C(=O)N[C@@H](CC(C)C)C(=O)N[C@@H](CCCNC(=N)N)C(=O)N[C@@H](C)C(=O)N[C@@H](CC(C)C)C(=O)N[C@@H](CCCNC(=N)N)C(=O)N[C@H](C(N)=O)C(C)C [Ac-LP32-Ala6, Ac-βA-GRLRALRV-CONH2] (Ac-[βAla]GRLRALRV-NH2)
PPI (%) micelio (P. infestans): 54.20 ± 4.31%

CC(=O)NCCC(=O)NCC(=O)N[C@@H](CCCNC(=N)N)C(=O)N[C@@H](CC(C)C)C(=O)N[C@@H](CCCNC(=N)N)C(=O)N[C@@H](Cc1c[nH]c2ccccc12)C(=O)N[C@@H](C)C(=O)N[C@@H](CCCNC(=N)N)C(=O)N[C@H](C(N)=O)C(C)C [Ac-LP32-Ala7, Ac-βA-GRLRWARV-CONH2] (Ac-[βAla]GRLRWARV-NH2)
PPI (%) micelio (P. infestans): 59.29 ± 7.05%

CC(=O)NCCC(=O)NCC(=O)N[C@@H](CCCNC(=N)N)C(=O)N[C@@H](CC(C)C)C(=O)N[C@@H](CCCNC(=N)N)C(=O)N[C@@H](Cc1c[nH]c2ccccc12)C(=O)N[C@@H](CC(C)C)C(=O)N[C@@H](C)C(=O)N[C@H](C(N)=O)C(C)C [Ac-LP32-Ala8, Ac-βA-GRLRWLAV-CONH2] (Ac-[βAla]GRLRWLAV-NH2)
PPI (%) micelio (P. infestans): 17.56 ± 7.48%

CC(=O)NCCC(=O)NCC(=O)N[C@@H](CCCNC(=N)N)C(=O)N[C@@H](CC(C)C)C(=O)N[C@@H](CCCNC(=N)N)C(=O)N[C@@H](Cc1c[nH]c2ccccc12)C(=O)N[C@@H](CC(C)C)C(=O)N[C@@H](CCCNC(=N)N)C(=O)N[C@@H](C)C(N)=O [Ac-LP32-Ala9, Ac-βA-GRLRWLRA-CONH2] (Ac-[βAla]GRLRWLRA-NH2)
PPI (%) micelio (P. infestans): 19.85 ± 2.92%

CSCC[C@H](NC(=O)[C@H](Cc1c[nH]c2ccccc12)NC(=O)[C@H](CCCNC(=N)N)NC(=O)CCN)C(=O)N[C@@H](CC(C)C)C(=O)N[C@H](C(=O)N[C@@H](Cc1ccc(O)cc1)C(=O)N[C@@H](CCCNC(=N)N)C(=O)N[C@@H](CCCNC(=N)N)C(N)=O)C(C)C [LP20] (H-[βAla]RWMLVYRR-NH2)
PPI (P. infestans): 72.78%
time of total proteolysis of the peptide (pronase): 10 min
stability against proteolysis (pronase): Low stability

CC(C)C[C@H](NC(=O)[C@H](CCCNC(=N)N)NC(=O)CNC(=O)CCN)C(=O)N[C@@H](CCCNC(=N)N)C(=O)N[C@@H](Cc1c[nH]c2ccccc12)C(=O)N[C@@H](CC(C)C)C(=O)N[C@@H](CCCNC(=N)N)C(=O)N[C@H](C(N)=O)C(C)C [LP32] (H-[βAla]GRLRWLRV-NH2)
PPI (P. infestans): 76.97%
time of total proteolysis of the peptide (pronase): 10 min
stability against proteolysis (pronase): low stability

CC(C)C[C@H](NC(=O)[C@H](CCSC(F)(F)F)NC(=O)[C@H](Cc1c[nH]c2ccccc12)NC(=O)[C@H](CCCNC(=N)N)NC(=O)CCN)C(=O)N[C@H](C(=O)N[C@@H](Cc1ccc(O)cc1)C(=O)N[C@@H](CCCNC(=N)N)C(=O)N[C@@H](CCCNC(=N)N)C(N)=O)C(C)C [LR131, H2N-βA-RW-MCF3-LVYRR-CONH2] (H-[βAla]RW[hCys](CF3)LVYRR-NH2)
PPI (%) ± Std. Dev. (P. infestans): 85.32 ± 5.19 (b) %

CSCC[C@H](NC(=O)[C@@H](Cc1c[nH]c2ccccc12)NC(=O)[C@@H](CCCNC(=N)N)NC(=O)CCN)C(=O)N[C@@H](CC(C)C)C(=O)N[C@H](C(=O)N[C@H](Cc1ccc(O)cc1)C(=O)N[C@@H](CCCNC(=N)N)C(=O)N[C@H](CCCNC(=N)N)C(N)=O)C(C)C [LR202, H2N-βA-(D)R-(D)W-MLV-(D)Y-R-(D)R-CONH2] (H-[βAla][dR][dW]MLV[dY]R[dR]-NH2)
PPI (%) ± Std. Dev. (P. infestans): 78.26 ± 0 (b) %

CSCC[C@H](NC(=O)[C@@H](Cc1c[nH]c2ccccc12)NC(=O)[C@@H](CCCNC(=N)N)NC(=O)CCN)C(=O)N[C@@H](CC(C)C)C(=O)N[C@H](C(=O)N[C@H](Cc1ccc(O)cc1)C(=O)N[C@@H](CCCNC(=N)N)C(=O)N[C@@H](CCCNC(=N)N)C(N)=O)C(C)C [LR206, H2N-βA-(D)R-(D)W-MLV-(D)Y-RR-CONH2] (H-[βAla][dR][dW]MLV[dY]RR-NH2)
PPI (%) ± Std. Dev. (P. infestans): 81.52 ± 5.47 (b) %

H2N-βA-RWM-hL-VYRR-CONH2 (H-[βAla]RWMXVYRR-NH2; not fully specified (residue 5); printed as H2N-βA-RWM-hL-VYRR-CONH2) [LR193, hydrazino-Leu analogue]
PPI (%) ± Std. Dev. (P. infestans): 79.35 ± 5.47 (b) %
